Data reported in patent US9469650B2, “Melampomagnolide B derivatives” (BOARD OF TRUSTEES OF THE UNIVERSITY OF ARKANSAS, priority 2013, dated 2016).

What was measured:
[1] = tested on: HOP-62; test: panel of 60 human tumor cell lines, growth inhibition (Non-Small Cell Lung Cancer)
[2] = tested on: SW-620; test: panel of 60 human tumor cell lines, growth inhibition (Colon Cancer); settings: for GI50: SW-620, SW-620; for Percent Growth: SW-620
[3] = tested on: PC-3; test: panel of 60 human tumor cell lines, growth inhibition (Prostate Cancer)
[4] = tested on: U251; test: panel of 60 human tumor cell lines, growth inhibition (CNS Cancer); settings: for Percent Growth: U251
[5] = tested on: UACC-257; test: panel of 60 human tumor cell lines, growth inhibition (Melanoma)
[6] = tested on: HT29; test: panel of 60 human tumor cell lines, growth inhibition (Colon Cancer); settings: for Percent Growth: HT29
[7] = tested on: CAKI-1; test: panel of 60 human tumor cell lines, growth inhibition (Renal Cancer)
[8] = tested on: MOLT-4; test: panel of 60 human tumor cell lines, growth inhibition (Leukemia)
[9] = tested on: SR; test: as above
[10] = tested on: HOP-92; test: panel of 60 human tumor cell lines, growth inhibition (Non-Small Cell Lung Cancer); settings: for Percent Growth: HOP-92; for GI50: HOP-92, HOP-92
[11] = tested on: LOX IMVI; test: panel of 60 human tumor cell lines, growth inhibition (Melanoma)
[12] = tested on: SF-539; test: panel of 60 human tumor cell lines, growth inhibition (CNS Cancer)
[13] = tested on: NCI-H322M; test: panel of 60 human tumor cell lines, growth inhibition (Non-Small Cell Lung Cancer)
[14] = tested on: MDA-MB-468; test: panel of 60 human tumor cell lines, growth inhibition (Breast Cancer)
[15] = tested on: COLO 205; test: panel of 60 human tumor cell lines, growth inhibition (Colon Cancer)

SMILES: C=C1C(=O)O[C@H]2[C@H]1CC/C(COC(=O)NCCc1ccccn1)=C\CC[C@@]1(C)O[C@@H]21 [JVM 61, ((1aR,7aS,10aS,10bS,E)-1a-methyl-8-methylene-9-oxo-1a,2,3,6,7,7a,8,9,10a,10b-decahydrooxireno[2′,3′:9,10]cyclodeca[1,2-b]furan-5-yl)methyl-(2-(pyridin-2-yl)ethyl)carbamate]
- Percent Growth ([1]; HOP-62, Log10 Concentration −4.0): −65%
- Percent Growth ([1]; HOP-62, Log10 Concentration −5.0): 91%
- Percent Growth ([1]; HOP-62, Log10 Concentration −6.0): 108%
- Percent Growth ([1]; HOP-62, Log10 Concentration −7.0): 102%
- Percent Growth ([1]; HOP-62, Log10 Concentration −8.0): 99%
- GI50 ([1]; Homo sapiens, HOP-62): 18.4 µM
- CC50 ([1]; Homo sapiens, HOP-62, read-out: LC50): 79.7 µM
- IC (TGI) ([1]; Homo sapiens, HOP-62, read-out: TGI): 38.3 µM
- GI50 ([2]; Homo sapiens): 3.13 µM
- GI50 ([2]; Homo sapiens, 5-dose assay): 3.13 µM
- CC50 ([2]; Homo sapiens, SW-620, read-out: LC50): 54.5 µM
- IC (TGI) ([2]; Homo sapiens, SW-620, read-out: TGI): 12.3 µM
- Percent Growth ([2]; Log10 Concentration −4.0): −70%
- Percent Growth ([2]; Log10 Concentration −5.0): 7%
- Percent Growth ([2]; Log10 Concentration −6.0): 92%
- Percent Growth ([2]; Log10 Concentration −7.0): 105%
- Percent Growth ([2]; Log10 Concentration −8.0): 109%
- GI50 ([3]; Homo sapiens, PC-3): 15.6 µM
- CC50 ([3]; Homo sapiens, PC-3, read-out: LC50): 76.8 µM
- IC (TGI) ([3]; Homo sapiens, PC-3, read-out: TGI): 35.7 µM
- Percent Growth ([3]; PC-3, Log10 Concentration −4.0): −67%
- Percent Growth ([3]; PC-3, Log10 Concentration −5.0): 83%
- Percent Growth ([3]; PC-3, Log10 Concentration −6.0): 97%
- Percent Growth ([3]; PC-3, Log10 Concentration −7.0): 95%
- Percent Growth ([3]; PC-3, Log10 Concentration −8.0): 98%
- GI50 ([4]; Homo sapiens, U-251): 12.5 µM
- CC50 ([4]; Homo sapiens, U-251, read-out: LC50): 55.6 µM
- IC (TGI) ([4]; Homo sapiens, U-251, read-out: TGI): 25.4 µM
- Percent Growth ([4]; Log10 Concentration −4.0): −89%
- Percent Growth ([4]; Log10 Concentration −5.0): 65%
- Percent Growth ([4]; Log10 Concentration −6.0): 93%
- Percent Growth ([4]; Log10 Concentration −7.0): 91%
- Percent Growth ([4]; Log10 Concentration −8.0): 97%
- GI50 ([5]; Homo sapiens, UACC-257): 4.59 µM
- CC50 ([5]; Homo sapiens, UACC-257, read-out: LC50): 53.7 µM
- TGI ([5]; UACC-257): 1.95E−5
- Percent Growth ([5]; UACC-257, Log10 Concentration −4.0): −81%
- Percent Growth ([5]; UACC-257, Log10 Concentration −5.0): 33%
- Percent Growth ([5]; UACC-257, Log10 Concentration −6.0): 83%
- Percent Growth ([5]; UACC-257, Log10 Concentration −7.0): 92%
- Percent Growth ([5]; UACC-257, Log10 Concentration −8.0): 97%
- Percent Growth ([6]; Log10 Concentration −4.0): −78%
- Percent Growth ([6]; Log10 Concentration −5.0): 24%
- Percent Growth ([6]; Log10 Concentration −6.0): 110%
- Percent Growth ([6]; Log10 Concentration −7.0): 106%
- Percent Growth ([6]; Log10 Concentration −8.0): 104%
- GI50 ([6]; Homo sapiens, HT-29): 4.69 µM
- CC50 ([6]; Homo sapiens, HT-29, read-out: LC50): 53.1 µM
- IC (TGI) ([6]; Homo sapiens, HT-29, read-out: TGI): 17.2 µM
- Percent Growth ([7]; CAKI-1, Log10 Concentration −4.0): −83%
- Percent Growth ([7]; CAKI-1, Log10 Concentration −5.0): 6%
- Percent Growth ([7]; CAKI-1, Log10 Concentration −6.0): 88%
- Percent Growth ([7]; CAKI-1, Log10 Concentration −7.0): 93%
- Percent Growth ([7]; CAKI-1, Log10 Concentration −8.0): 99%
- GI50 ([7]; Homo sapiens, CAKI-1): 2880 nM
- CC50 ([7]; Homo sapiens, CAKI-1, read-out: LC50): 42.8 µM
- IC (TGI) ([7]; Homo sapiens, CAKI-1, read-out: TGI): 11.7 µM
- GI50 ([8]; Homo sapiens, MOLT-4): 5.54 µM
- CC50 ([8]; Homo sapiens, MOLT-4, read-out: LC50): > 100 µM
- IC (TGI) ([8]; Homo sapiens, MOLT-4, read-out: TGI): 25 µM
- Percent Growth ([8]; MOLT-4, Log10 Concentration −4.0): −47%
- Percent Growth ([8]; MOLT-4, Log10 Concentration −5.0): 31%
- Percent Growth ([8]; MOLT-4, Log10 Concentration −6.0): 105%
- Percent Growth ([8]; MOLT-4, Log10 Concentration −7.0): 106%
- Percent Growth ([8]; MOLT-4, Log10 Concentration −8.0): 106%
- GI50 ([9]; Homo sapiens): 4.1 µM
- CC50 ([9]; Homo sapiens, read-out: LC50): > 100 µM
- IC (TGI) ([9]; Homo sapiens, read-out: TGI): 24.6 µM
- Percent Growth ([9]; Log10 Concentration −4.0): −34%
- Percent Growth ([9]; Log10 Concentration −5.0): 22%
- Percent Growth ([9]; Log10 Concentration −6.0): 95%
- Percent Growth ([9]; Log10 Concentration −7.0): 100%
- Percent Growth ([9]; Log10 Concentration −8.0): 99%
- Percent Growth ([10]; Log10 Concentration −4.0): −87%
- Percent Growth ([10]; Log10 Concentration −5.0): 12%
- Percent Growth ([10]; Log10 Concentration −6.0): 71%
- Percent Growth ([10]; Log10 Concentration −7.0): 66%
- Percent Growth ([10]; Log10 Concentration −8.0): 0.2%
- GI50 ([10]; Homo sapiens): 2250 nM
- GI50 ([10]; Homo sapiens, 5-dose assay): 2250 nM
- CC50 ([10]; Homo sapiens, HOP-92, read-out: LC50): 42.2 µM
- IC (TGI) ([10]; Homo sapiens, HOP-92, read-out: TGI): 13.1 µM
- GI50 ([11]; Homo sapiens): 4.96 µM
- GI50 ([11]; Homo sapiens, 5-dose assay): 4.96 µM
- CC50 ([11]; Homo sapiens, read-out: LC50): 58.2 µM
- IC (TGI) ([11]; Homo sapiens, read-out: TGI): 19.4 µM
- Percent Growth ([11]; Log10 Concentration −4.0): −75%
- Percent Growth ([11]; Log10 Concentration −5.0): 30%
- Percent Growth ([11]; Log10 Concentration −6.0): 96%
- Percent Growth ([11]; Log10 Concentration −7.0): 102%
- Percent Growth ([11]; Log10 Concentration −8.0): 99%
- GI50 ([12]; Homo sapiens, SF-539): 5.77 µM
- CC50 ([12]; Homo sapiens, SF-539, read-out: LC50): 43.2 µM
- IC (TGI) ([12]; Homo sapiens, SF-539, read-out: TGI): 15.4 µM
- Percent Growth ([12]; SF-539, Log10 Concentration −4.0): −99%
- Percent Growth ([12]; SF-539, Log10 Concentration −5.0): 36%
- Percent Growth ([12]; SF-539, Log10 Concentration −6.0): 96%
- Percent Growth ([12]; SF-539, Log10 Concentration −7.0): 97%
- Percent Growth ([12]; SF-539, Log10 Concentration −8.0): 103%
- GI50 ([13]; Homo sapiens): 22.5 µM
- CC50 ([13]; Homo sapiens, read-out: LC50): > 100 µM
- IC (TGI) ([13]; Homo sapiens, read-out: TGI): 63.4 µM
- Percent Growth ([13]; Log10 Concentration −4.0): −18%
- Percent Growth ([13]; Log10 Concentration −5.0): 87%
- Percent Growth ([13]; Log10 Concentration −6.0): 105%
- Percent Growth ([13]; Log10 Concentration −7.0): 103%
- Percent Growth ([13]; Log10 Concentration −8.0): 106%
- GI50 ([14]; Homo sapiens, MDA-MB-468): 3.22 µM
- CC50 ([14]; Homo sapiens, MDA-MB-468, read-out: LC50): 64.5 µM
- IC (TGI) ([14]; Homo sapiens, MDA-MB-468, read-out: TGI): 16.4 µM
- Percent Growth ([14]; MDA-MB-468, Log10 Concentration −4.0): −66%
- Percent Growth ([14]; MDA-MB-468, Log10 Concentration −5.0): 18%
- Percent Growth ([14]; MDA-MB-468, Log10 Concentration −6.0): 83%
- Percent Growth ([14]; MDA-MB-468, Log10 Concentration −7.0): 89%
- Percent Growth ([14]; MDA-MB-468, Log10 Concentration −8.0): 95%
- Percent Growth ([15]; COLO 205, Log10 Concentration −4.0): −79%
- Percent Growth ([15]; COLO 205, Log10 Concentration −5.0): 3%
- Percent Growth ([15]; COLO 205, Log10 Concentration −6.0): 107%
- Percent Growth ([15]; COLO 205, Log10 Concentration −7.0): 108%
- Percent Growth ([15]; COLO 205, Log10 Concentration −8.0): 104%
- GI50 ([15]; Homo sapiens, COLO 205): 3.54 µM
- CC50 ([15]; Homo sapiens, COLO 205, read-out: LC50): 44.6 µM
- IC (TGI) ([15]; Homo sapiens, COLO 205, read-out: TGI): 11 µM
